Measurements from US20220264913A1, “MULTIFUNCTIONAL EXTRACTS OF SUGARCANE STRAW OR BAGASSE AND USES THEREOF” (UNIVERSIDADE CATÓLICA PORTUGUESA - UCP, priority 2019, published 2022).

Assays:
Assay type in all cases: cell-based
Conditions in all cases: extracts 50% ethanol, ND = inhibition not detected
[1] = system: C. albicans; assay: MIC/MBC determination, C. albicans
Protocol: (§1) The antimicrobial activity of the extracts was evaluated by measuring the minimum inhibitory concentration (MIC) and the minimum bactericidal concentration (MBC) of the extracts using the methods of the clinical and laboratory standards institute for aerobic (M07-A9) and anaerobic bacteria (M11-A8). From a previously filtered 3% stock solution a series of extract dilutions were prepared (2%, 1.5%, 1%, 0.75%, 0.5%, 0.25%, 0.125%, and 0.0625% (w/v)). A commonly used preservative, 2-phenoxyethanol was tested under the same conditions as a positive control.
(§2) MHB growth media was used for aerobic microorganisms and Wilkins Chalgren Broth (WCB) was used for anaerobic microorganisms. The microorganisms were inoculated at 2% (v/v) from an inoculum with 0.5 McFarland standard (ca. 10^8 CFU/mL) and then adjusted in order to obtain a final inoculum of 10^5 CFU/mL in the testing solutions. […] The OD of each well (experimental and control) was measured each hour at 660 nm. […] Afterwards, the concentrations for which no growth was detected were plated in MHA and Wilkins Chalgren Agar (WCA) accordingly, in order to verify the MBC. MBC and MIC were determined by the analysis of maximum absorbance registered, delay of the exponential phase entry, and the calculation of the specific growth rate. […]

[2] = system: P. aeruginosa; assay: MIC/MBC determination, P. aeruginosa
Protocol: as §1, §2

[3] = system: E. coli; assay: MIC/MBC determination, E. coli
Protocol: as §1, §2

[4] = system: MSSA; assay: MIC/MBC determination, MSSA
Protocol: as §1, §2

Work on OCCOc1ccccc1 [Phenoxyethanol, 2-phenoxyethanol] yielded an MBC [1] of 3%, an MBC [2] of 0.3% and an MBC [3] of 3%. It also gave an MBC [4] of 0.3%.
